Data published in ChEMBL document CHEMBL1150488 (1993).
In brackets after ≈: the same amount, converted by molar mass.

Experiments:
Assay type in all cases: functional
Bacteroides fragilis [1] = assay: Tested for zone of inhibition against Bacteroides fragilis UC6513 (1 mg/mL, 80 microL/12.7 mm)
Clostridium perfringens [2] = assay: Tested for zone of inhibition against Clostridium perfringens UC6509
Staphylococcus aureus [3] = assay: Tested for zone of inhibition against Staphylococcus aureus UC3665 (1 mg/mL, 80 microL/12.7 mm)
Staphylococcus aureus [4] = assay: Tested for zone of inhibition against Staphylococcus aureus UC6685 (1 mg/mL, 80 microL/6.5 mm)
[5] = test system: Staphylococcus epidermidis; assay: Tested for zone of inhibition against Staphylococcus epidermidis UC719 (1 mg/mL, 80 microL/6.5 mm)
[6] = test system: Parabacteroides distasonis; assay: Tested in vitro for its antibacterial activity against Bacteroides distasonis UC6518
[7] = test system: Prevotella melaninogenica; assay: Tested in vitro for its antibacterial activity against Bacteroides melaninogenicus UC 6523
Fusobacterium nucleatum = assay: Tested in vitro for its antibacterial activity against Fusobacterium nucleatum UC6324
Cutibacterium acnes = assay: Tested in vitro for its antibacterial activity against Propionibacterium acnes UC6564
Escherichia coli = assay: Tested in vitro for its antibacterial activity against Escherichia coli UC9379
Streptococcus pyogenes = assay: Tsted in vitro for its antibacterial activity against Streptococcus pyogenes UC152
Bacteroides fragilis [8] = assay: Tested in vitro for its antibacterial activity against Bacteroides fragilis UC9370 [clindamycin 1 micro g/mL]
[9] = test system: Bacteroides thetaiotaomicron; assay: Tested in vitro for its antibacterial activity against Bacteroides thetaiotaomicron UC 9014[clindamycin 2 micro g/mL]
Clostridium perfringens [10] = assay: Tested in vitro for its antibacterial activity against Clostridium perfringens UC6509
[11] = Tested in vitro for its antibacterial activity against Peptococcus variabilis UC6320

Row | SMILES | Diameter of inhibition zone (Bacteroides fragilis [1]) [mm] | Diameter of inhibition zone (Clostridium perfringens [2]) [mm] | Diameter of inhibition zone (Staphylococcus aureus [3]) [mm] | Diameter of inhibition zone (Staphylococcus aureus [4]) [mm] | Diameter of inhibition zone [5] | also measured
1 | CC(=O)OC/C(C)=C1/CN(C(C)=O)C1=O | 29 | 0 | 0 | 0 | 0 mm | –
2 | CCCCCC(=O)N1C/C(=C(\C)COC(C)=O)C1=O | 30 | 0 | 19 | 12 | 7 mm | –
3 | CCCC(=O)N1C[C@H]([C@@H](C)COC(C)=O)C1=O | 36 | 0 | 0 | 0 | 0 mm | –
4 | C[C@H]1[C@H](NC(=O)/C(=N\OC(C)(C)C(=O)O)c2csc(N)n2)C(=O)N1S(=O)(=O)O [AZTREONAM] | – | – | – | – | – | MIC [6]: 64 µg/mL (≈ 147 µM); MIC [7]: 4 µg/mL (≈ 9.19 µM); MIC (Fusobacterium nucleatum): 4 µg/mL (≈ 9.19 µM); MIC (Cutibacterium acnes): 2 µg/mL (≈ 4.59 µM)
5 | CCCCCC(=O)OC/C(C)=C1/CN(C(=O)CCCCC)C1=O | 0 | 0 | 0 | 0 | 0 mm | –
6 | CC(=O)OC[C@H](C)[C@H]1CN(C(C)=O)C1=O | 20 | 0 | 0 | 0 | 0 mm | –
7 | CCCCCC(=O)N1C/C(=C(\C)CN=[N+]=[N-])C1=O | 52 | – | 27 | 27 | 19 mm | –
8 | CCCCCC(=O)N1C/C(=C(\C)CF)C1=O | 88 | 78 | 36 | 39 | 31 mm | –
9 | CCCCCC(=O)N1C[C@H]([C@H](C)COC(C)=O)C1=O | – | – | 36 | 9 | 23 mm | –
10 | CCCCOC(=O)N1C/C(=C(\C)CN=[N+]=[N-])C1=O | 37 | 36 | 30 | 39 | 32 mm | –
11 | CO[C@@]1(NC(=O)C(C(=O)O)c2ccc(O)cc2)C(=O)N2C(C(=O)O)=C(CSc3nnnn3C)CO[C@@H]21 (stereo partly drawn) [MOXALACTAM] | – | – | – | – | – | MIC (Escherichia coli): 0.06 µg/mL (≈ 0.115 µM); MIC (Streptococcus pyogenes): 0.5 µg/mL (≈ 0.961 µM)
12 | CCCCCC(=O)OC[C@@H](C)[C@H]1CN(C(=O)CCCCC)C1=O | – | – | 31 | 24 | 8 mm | MIC [6]: 256 µg/mL (≈ 787 µM); MIC (Bacteroides fragilis [8]): 8 µg/mL (≈ 24.6 µM); MIC [9]: 8 µg/mL (≈ 24.6 µM); MIC [7]: 8 µg/mL (≈ 24.6 µM); MIC (Clostridium perfringens [10]): 128 µg/mL (≈ 393 µM); MIC (Escherichia coli): > 160 µg/mL; MIC (Fusobacterium nucleatum): 16 µg/mL (≈ 49.2 µM); MIC [11]: 256 µg/mL (≈ 787 µM); MIC (Cutibacterium acnes): 4 µg/mL (≈ 12.3 µM); MIC (Streptococcus pyogenes): > 160 µg/mL
13 | CCCCCC(=O)N1C/C(=C(/C)COC2CCCCO2)C1=O (stereo not drawn) | 0 | – | 0 | 0 | 0 diameter mm | –
14 | CCCC(=O)N1C/C(=C(/C)COC(C)=O)C1=O | 31 | – | 0 | 0 | 0 mm | –
15 | CCCCCC(=O)N1C[C@H]([C@H](C)Cn2nnc(C(=O)OC)c2C(=O)OC)C1=O | 65 | – | 0 | 0 | 0 mm | –
16 | CCCCOC(=O)N1C[C@H]([C@H](C)CNC(C)=O)C1=O | 36 | 19 | 0 | 0 | 0 mm | –
17 | CCCC(=O)OC/C(C)=C1/CN(C(=O)CCC)C1=O | 21 | 0 | 0 | 0 | 0 mm | –
